Series [1] has as its system fructose-6-phosphate aldolase (FSA). To be noted: aldolytic activity on D-arabinose-5-phosphate vs fructose-6-phosphate; cited from earlier work.
Series [2] has as its target T1, E. coli K12 MG1655 aldehyde dehydrogenase (glycolaldehyde dehydrogenase, AldA), polyhistidine-tagged (aldA-His), wild type, SEQ ID NO: 4 (Escherichia coli, UniProt P25553).
T1 sequence (P25553 1-479): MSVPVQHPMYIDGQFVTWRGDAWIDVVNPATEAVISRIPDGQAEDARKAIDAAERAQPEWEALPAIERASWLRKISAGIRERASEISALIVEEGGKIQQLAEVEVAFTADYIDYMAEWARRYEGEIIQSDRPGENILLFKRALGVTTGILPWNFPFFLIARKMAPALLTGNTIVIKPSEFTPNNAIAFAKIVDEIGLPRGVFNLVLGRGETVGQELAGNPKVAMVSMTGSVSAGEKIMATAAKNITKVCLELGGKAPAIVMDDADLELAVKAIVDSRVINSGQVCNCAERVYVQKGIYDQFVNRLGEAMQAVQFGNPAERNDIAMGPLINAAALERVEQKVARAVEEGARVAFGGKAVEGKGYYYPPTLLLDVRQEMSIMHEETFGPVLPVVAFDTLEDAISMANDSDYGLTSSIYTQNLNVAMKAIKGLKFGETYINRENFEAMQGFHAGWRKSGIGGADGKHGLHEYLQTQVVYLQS
Nature of the series: AldA (aldehyde dehydrogenase) activity on glycolaldehyde, NADH at 340 nm. Format: biochemical.

Substrate in series [3]: O=CCO
Nature of the series: purified protein, by the assay type. The following applies: other: substrate glycolaldehyde, 100 mM Tris, pH 7.5, 10 mM MgCl2, 37° C., 3 mM NAD+, 3 mM ATP.

Substrate in series [4]: O=P(O)(O)OC[C@H]1OC(O)[C@@H](O)[C@@H]1O
Nature of the series: FSA (fructose-6P aldolase) activity on D-arabinose-5P, coupled to AldA or to TPI and G3PDH, NADH at 340 nm. Format: biochemical, Escherichia coli K12 MG1655. To be noted: other: substrate D-arabinose-5P, 100 mM Tris, pH 7.5, 10 mM MgCl2, 37° C., coupled to AldA (2 mM NAD+) or TPI/G3PDH (0.4 mM NADH). An excerpt:
To construct a system in vitro, the inventors have cloned the ORFs (“Open Reading Frames”) of the xylose isomerase (XylA), xylulokinase (XylB), arabinose isomerase (AraA), ribulose kinase (AraB), L-ribulose-5-phosphate 4-epimerase (AraD), ribulose-5-phosphate-3-epimerase (RPE), D-arabinose-5-phosphate isomerase (KdsD), fructose-6-phosphate aldolase (FSA corresponding to FSAA such as previously defined) and aldehyde dehydrogenase (AdA) of E. coli K12 MG1655 with a polyhistidine tag for a facilitated purification. The oligonucleotides used for amplifying ORFS of the E. coli enzymes are listed in Table 3 below, the sequences SEQ ID NO: making reference to the appended sequence listing. The E. coli genomic DNA which served as on template is that of the strain K12 MG1655.
The plasmids for the expression of the C-terminal polyhistidine tagged proteins XylA, XylB, AraA, AraB, AraD, AraB, Rpe, KdsD, FSA, AdA have been constructed by HiFi Assembly® (NEB) with pET28a as a receiving vector. pET28a has been linearised beforehand with the restriction enzymes HindIII and BamHI (NEB) (Table 4). The E. coli strain NEB5®, derived from DH5 alpha, has been used for cloning and storing the different plasmids.
All the proteins expressed are soluble and have been produced from the expression vector pET28a transformed in an E. coli strain BL21 (DE3). […]

In the case of `O=P(O)(O)OC[C@H]1OC(O)[C@@H](O)[C@@H]1O` (stereo partly drawn) [D-arabinose-5P, D-arabinose-5-phosphate], the “affinity (times higher than for fructose-6-phosphate)” value in series [1] is reported as 10 times. As to `O=CCO` [glycolaldehyde], the Vmax in series [2] (substrate glycolaldehyde (5 mM glycoaldehyde in method), 100 mM Tris, pH 7.5, 10 mM MgCl2, 37° C., 3 mM NAD+, 3 mM ATP) is 1.16 ± 0.31 U mg^−1. For the same molecule, in series [2] (substrate glycolaldehyde, pH 7.5, 37° C.), the Vmax/Km is 5 552 .10^−6 min^−1 mg^−1.

B1: E. coli K12 MG1655 aldehyde dehydrogenase (glycolaldehyde dehydrogenase, AldA), polyhistidine-tagged (aldA-His), wild type, SEQ ID NO: 4 (Escherichia coli K-12) (protein)
chain: T1 sequence (P25553 1-479)
Regarding B1, the Km (in general, the substrate concentration at which the rate is half of its maximum) in series [3] worked out at 210 ± 50 µM.

B2: E. coli K12 MG1655 fructose-6-phosphate aldolase (FSA, FSAA), polyhistidine-tagged (FSA-His), wild type, SEQ ID NO: 2 (Escherichia coli K-12) (protein)
chain: MELYLDTSDVVAVKALSRIFPLAGVTTNPSIIAAGKKPLDVVLPQLHEAMGGQGRLFAQVMATTAEGMVNDALKLRSIIADIVVKVPVTAEGLAAIKMLKAEGIPTLGTAVYGAAQGLLSALAGAEYVAPYVNRIDAQGGSGIQTVTDLHQLLKMHAPQAKVLAASFKTPRQALDCLLAGCESITLPLDVAQQMISYPAVDAAVAKFEQDWQGAFGRTSI
As to B2, in series [4], the Km stood at 652 ± 150 µM and the Vmax worked out at 0.26 µmol/min/mg.

The record behind these values is patent US11851696B2, “Microorganisms and process for producing glycolic acid from pentoses and hexoses” (Institut National Des Sciences Appliquées De Toulouse, priority 2018, dated 2023).
